Reference: US8362050B2, “Compounds and methods for modulating G protein-coupled receptors” (IRM LLC, priority 2008, dated 2013)
Where two headings read alike, the source gives them in different places.

Target: T1, Human GPR120 (Homo sapiens, UniProt Q5NUL3)
T1 construct: Ga16 (promiscuous G protein) fusion partner; expressed in transfected cells
T1 sequence (Q5NUL3 with tags, fused parts or gaps): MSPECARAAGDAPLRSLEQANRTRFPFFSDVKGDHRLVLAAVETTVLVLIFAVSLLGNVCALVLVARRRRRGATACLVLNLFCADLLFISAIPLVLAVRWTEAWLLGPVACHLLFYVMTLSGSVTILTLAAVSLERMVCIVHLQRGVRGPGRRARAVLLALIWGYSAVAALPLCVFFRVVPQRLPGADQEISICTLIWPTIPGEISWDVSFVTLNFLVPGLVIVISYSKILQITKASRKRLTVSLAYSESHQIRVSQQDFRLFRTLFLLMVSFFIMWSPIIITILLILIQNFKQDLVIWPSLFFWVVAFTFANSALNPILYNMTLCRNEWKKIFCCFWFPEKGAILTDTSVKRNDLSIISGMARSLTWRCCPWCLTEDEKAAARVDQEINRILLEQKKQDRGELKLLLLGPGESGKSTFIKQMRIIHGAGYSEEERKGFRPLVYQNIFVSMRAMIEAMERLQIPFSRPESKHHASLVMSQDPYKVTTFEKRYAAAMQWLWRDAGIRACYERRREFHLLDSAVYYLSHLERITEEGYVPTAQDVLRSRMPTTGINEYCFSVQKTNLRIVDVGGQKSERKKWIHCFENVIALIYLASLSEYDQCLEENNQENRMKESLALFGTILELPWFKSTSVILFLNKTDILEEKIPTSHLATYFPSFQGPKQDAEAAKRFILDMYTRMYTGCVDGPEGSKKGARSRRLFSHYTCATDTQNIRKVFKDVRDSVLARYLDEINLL
Experiment: FLIPR assay: agonist-induced calcium mobilization in HEK293-GPR120-Ga16 cells
Format: cell-based
Conditions: for EC50: GPR120 activation, calcium mobilization, HEK293-GPR120-Ga16 cells; for Emax: % enhancement of the test compound relative to a known compound, read-out: % Efficiency
Protocol: Human GPR120 stable cell-line was generated in HEK293 cells. GPR120 (Accession number BC101175) is fused to a promiscuous G protein, Ga16. The expression plasmid is transfected into HEK293 cells using Fugene6 following manufacturer's instruction. Stable cell-lines are generated following drug selection.
FLIPR (Fluorimetric Imaging Plate Reader, Molecular Devices) assays are performed to measure agonist-induced calcium mobilization in the GPR120-expressing cells. One day before the FLIPR assay, HEK293-GPR120-Ga16 cells are seeded into poly-D-lysine coated black-wall-clear bottom 384 well plates (Falcon) at 25,000 cells per well in 40 μl DMEM supplemented with 1% of FBS. The cells are incubated overnight at 37° C. in a humidified incubator. The medium is aspirated on the day of the FLIPR assay. The cells are incubated with 50 μl/well of the assay buffer (HBSS, 20 mM HEPES, 2.5 mM probenecid, pH7.4) containing Fluo-4 NM dye (Invitrogen cat# F36205) at 37° C. for 45 minutes, and then equilibrated at room temperature for 30 minutes. Compounds are dissolved in DMSO and diluted to desired concentrations with assay buffer. Fluorescent output is measured immediately following compound addition (12.5 μl/well) on the FLIPR machine.
An EC50 value was calculated using the change of fluorescent intensity from the reaction initiation. […] In some examples, compounds provided herein have EC50 values from 0.1 μM to 5 μM, while in other examples from 0.5 μM to 5 μM.
The EC50 value in those experiments is given as that concentration of the test compound in question that provoke a response halfway between the baseline and maximum responses. In certain examples compounds of Formula (I) have EC50 values from 0.001 μM to 5 μM. In other examples, compounds of Formula (I) have EC50 values from 0.001 μM to 4 μM. In other examples, compounds of Formula (I) have EC50 values from 0.001 μM to 3 μM. In other examples, compounds of Formula (I) have EC50 values from 0.001 μM to 2 μM. In other examples, compounds of Formula (I) have EC50 values from 0.001 μM to 1 μM. In other examples, compounds of Formula (I) have EC50 values from 0.001 μM to 0.5 μM. […] In other examples, compounds of Formula (I) have EC50 values from 0.001 μM to 0.1 μM.
The % efficiency in those experiments is given as that % enhancement of the test compound in question relative to a known compound. In certain examples compounds of Formula (I) have a % efficiency values from 50% to 150%. In other examples, compounds of Formula (I) have a % efficiency values from 55% to 150%. In other examples, compounds of Formula (I) have a % efficiency values from 60% to 150%. In other examples, compounds of Formula (I) have a % efficiency values from 65% to 150%. In other examples, compounds of Formula (I) have a % efficiency values from 70% to 150%. In other examples, compounds of Formula (I) have a % efficiency values from 75% to 150%. In other examples, compounds of Formula (I) have a % efficiency values from 80% to 150%. In other examples, compounds of Formula (I) have a % efficiency values from 85% to 150%. In other examples, compounds of Formula (I) have a % efficiency values from 90% to 150%. In other examples, compounds of Formula (I) have a % efficiency values from 95% to 150%. In other examples, compounds of Formula (I) have a % efficiency values from 100% to 150%.

Row | EC50 (read-out: EC50 Range) [nM] | Emax [%] | EC50 (read-out: EC50) [nM] | Compound
1 | 1000 to 5000 |  |  | CCc1ccc(-c2cn(-c3cc(C(=O)O)ccc3F)nn2)cc1 [Compound 70, 3-(4-(4-ethylphenyl)-1H-1,2,3-triazol-1-yl)-4-fluorobenzoic acid]
2 | 1000 to 5000 |  |  | CCc1ccc(-c2cn(-c3ccc(F)c(C(=O)O)c3)nn2)cc1 [Compound 69, 5-(4-(4-ethylphenyl)-1H-1,2,3-triazol-1-yl)-2-fluorobenzoic acid]
3 | 100 to 250 | 124 | 109 | CCn1c(-c2cc(Cl)ccc2Cl)cs/c1=N\c1ccc(S(=O)(=O)O)cc1 [Compound 7, (Z)-4-(4-(2,5-dichlorophenyl)-3-ethylthiazol-2(3H)-ylideneamino)benzenesulfonic acid]
4 | 1 to 100 | 114 | 78 | CCn1c(-c2cccc(Cl)c2)cs/c1=N\c1ccc(S(=O)(=O)O)cc1 [Compound 31, (Z)-4-(4-(3-chlorophenyl)-3-ethylthiazol-2(3H)-ylideneamino)benzenesulfonic acid]
5 | 100 to 250 | 77.1 | 119 | CCn1c(-c2cccc(OCCOC)c2)cs/c1=N\c1ccc(C(=O)O)cc1 [Compound 20, (Z)-4-(3-ethyl-4-(3-(2-methoxyethoxy)phenyl)thiazol-2(3H)-ylideneamino)benzoic acid]
6 | 100 to 250 | 71.2 | 184 | O=C(O)c1ccc(/N=c2\scc(-c3ccccc3)n2CC(F)(F)F)cc1 [Compound 24, (Z)-4-(4-phenyl-3-(2,2,2-trifluoroethyl)thiazol-2(3H)-ylideneamino)benzoic acid]
7 | 100 to 250 |  |  | Cc1ccc(-n2cc(-c3cccc(C(=O)O)c3)nn2)c(F)c1 [Compound 67, 3-(1-(2-fluoro-4-methylphenyl)-1H-1,2,3-triazol-4-yl)benzoic acid]
8 | 250 to 500 |  |  | CCn1c(-c2cccc(O)c2)cs/c1=N\c1ccc(C(=O)O)cc1 [Compound 18, (Z)-4-(3-ethyl-4-(3-hydroxyphenyl)thiazol-2(3H)-ylideneamino)benzoic acid]
9 | 250 to 500 |  |  | CCn1c(-c2cccc(OC)c2)cs/c1=N\c1ccc(S(=O)(=O)O)cc1 [Compound 29, (Z)-4-(3-ethyl-4-(3-methoxyphenyl)thiazol-2(3H)-ylideneamino)benzenesulfonic acid]
10 | 250 to 500 | 96.9 | 479 | CCCn1c(-c2ccccc2)cs/c1=N\c1ccc(C(=O)O)cc1 [Compound 16, (Z)-4-(4-phenyl-3-propylthiazol-2(3H)-ylideneamino)benzoic acid]
11 | 500 to 1000 |  |  | CCn1c(-c2cccc(OC(F)(F)F)c2)cs/c1=N\c1ccc(C(=O)O)cc1 [Compound 13, (Z)-4-(3-ethyl-4-(3-(trifluoromethoxy)phenyl)thiazol-2(3H)-ylideneamino)benzoic acid]
12 | 500 to 1000 | 87.9 | 526 | CCn1c(-c2ccccc2NC)cs/c1=N\c1ccc(C(=O)O)cc1 [Compound 45, (Z)-4-(3-ethyl-4-(2-(methylamino)phenyl)thiazol-2(3H)-ylideneamino)benzoic acid]
13 | 500 to 1000 |  |  | CCn1c(-c2ccccc2N(C)C)cs/c1=N\c1ccc(C(=O)O)cc1 [Compound 46, (Z)-4-(4-(2-(dimethylamino)phenyl)-3-ethylthiazol-2(3H)-ylideneamino)benzoic acid]
14 | 250 to 500 |  |  | CCn1c(-c2ccc3ccccc3c2)cs/c1=N\c1ccc(C(=O)O)cc1 [Compound 41, (Z)-4-(3-ethyl-4-(naphthalen-2-yl)thiazol-2(3H)-ylideneamino)benzoic acid]
15 | 500 to 1000 |  |  | CCc1ccc(-c2cn(-c3cccc(C(=O)O)c3)nn2)cc1 [Compound 61, 3-(4-(4-ethylphenyl)-1H-1,2,3-triazol-1-yl)benzoic acid]
